Measured values reported in patent publication US12258328B2, “6-membered heteroaryl-containing aminopyridine compounds as EGFR inhibitors” (YUHAN CORPORATION, priority 2021, dated 2025).
Where two headings read alike, the source gives them in different places.

What was measured:
EGFR L858R/T790M/C797S = EGFR L858R/T790M/C797S (Homo sapiens, UniProt P00533, C797S/L858R/T790M); assay: Biochemical EGFR kinase assay (Lance Ultra TR-FRET), triple mutant L858R/T790M/C797S
In short: (§1)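 Step 1: compound in kinase buffer, 0.003–10 μM. Step 2: kinase reaction 1 h at room temperature. Step 4: TR-FRET read at 615/665 nm; IC50 calculated.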

EGFR L858R/C797S = EGFR L858R/C797S (Homo sapiens, UniProt P00533, C797S/L858R); assay: Biochemical EGFR kinase assay (Lance Ultra TR-FRET), double mutant L858R/C797S
EGFR L858R/C797S, sequence (P00533 25-1210 C797S/L858R): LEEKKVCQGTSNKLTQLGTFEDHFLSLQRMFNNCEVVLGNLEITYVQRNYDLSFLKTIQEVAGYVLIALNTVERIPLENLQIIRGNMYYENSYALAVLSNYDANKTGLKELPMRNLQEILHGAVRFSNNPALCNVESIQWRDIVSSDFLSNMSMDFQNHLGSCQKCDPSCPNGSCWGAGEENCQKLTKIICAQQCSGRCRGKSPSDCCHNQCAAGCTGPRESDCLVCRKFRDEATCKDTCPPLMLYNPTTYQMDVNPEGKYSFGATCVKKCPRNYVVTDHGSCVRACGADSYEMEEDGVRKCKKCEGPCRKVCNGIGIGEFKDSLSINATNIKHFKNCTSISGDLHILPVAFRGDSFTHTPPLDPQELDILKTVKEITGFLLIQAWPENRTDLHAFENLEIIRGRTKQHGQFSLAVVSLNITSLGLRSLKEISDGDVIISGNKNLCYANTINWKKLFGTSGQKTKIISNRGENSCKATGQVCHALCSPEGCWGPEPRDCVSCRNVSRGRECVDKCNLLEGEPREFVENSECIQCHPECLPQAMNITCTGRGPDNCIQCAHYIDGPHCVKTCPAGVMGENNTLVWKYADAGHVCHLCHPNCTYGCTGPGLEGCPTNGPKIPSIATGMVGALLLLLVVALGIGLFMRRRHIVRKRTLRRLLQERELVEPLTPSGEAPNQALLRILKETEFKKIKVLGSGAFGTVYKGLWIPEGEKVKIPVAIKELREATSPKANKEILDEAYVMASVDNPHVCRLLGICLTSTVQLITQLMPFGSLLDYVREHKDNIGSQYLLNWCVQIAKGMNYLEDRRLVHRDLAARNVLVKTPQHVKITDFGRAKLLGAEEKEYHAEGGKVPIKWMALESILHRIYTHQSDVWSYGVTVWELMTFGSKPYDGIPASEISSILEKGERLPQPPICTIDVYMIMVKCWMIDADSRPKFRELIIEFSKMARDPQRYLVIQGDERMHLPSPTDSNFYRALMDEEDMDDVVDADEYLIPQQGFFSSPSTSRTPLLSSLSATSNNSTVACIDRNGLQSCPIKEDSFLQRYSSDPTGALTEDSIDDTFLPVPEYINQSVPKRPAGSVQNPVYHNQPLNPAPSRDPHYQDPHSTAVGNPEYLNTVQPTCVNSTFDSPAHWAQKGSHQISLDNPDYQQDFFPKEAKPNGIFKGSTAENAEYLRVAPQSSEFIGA
In short: as §1

EGFR del19/C797S = EGFR del19/C797S (Homo sapiens, UniProt P00533, C797S/DEL746-750); assay: Biochemical EGFR kinase assay (Lance Ultra TR-FRET), double mutant del19/C797S
EGFR del19/C797S, sequence (P00533 with tags, fused parts or gaps DEL746-750/C797S): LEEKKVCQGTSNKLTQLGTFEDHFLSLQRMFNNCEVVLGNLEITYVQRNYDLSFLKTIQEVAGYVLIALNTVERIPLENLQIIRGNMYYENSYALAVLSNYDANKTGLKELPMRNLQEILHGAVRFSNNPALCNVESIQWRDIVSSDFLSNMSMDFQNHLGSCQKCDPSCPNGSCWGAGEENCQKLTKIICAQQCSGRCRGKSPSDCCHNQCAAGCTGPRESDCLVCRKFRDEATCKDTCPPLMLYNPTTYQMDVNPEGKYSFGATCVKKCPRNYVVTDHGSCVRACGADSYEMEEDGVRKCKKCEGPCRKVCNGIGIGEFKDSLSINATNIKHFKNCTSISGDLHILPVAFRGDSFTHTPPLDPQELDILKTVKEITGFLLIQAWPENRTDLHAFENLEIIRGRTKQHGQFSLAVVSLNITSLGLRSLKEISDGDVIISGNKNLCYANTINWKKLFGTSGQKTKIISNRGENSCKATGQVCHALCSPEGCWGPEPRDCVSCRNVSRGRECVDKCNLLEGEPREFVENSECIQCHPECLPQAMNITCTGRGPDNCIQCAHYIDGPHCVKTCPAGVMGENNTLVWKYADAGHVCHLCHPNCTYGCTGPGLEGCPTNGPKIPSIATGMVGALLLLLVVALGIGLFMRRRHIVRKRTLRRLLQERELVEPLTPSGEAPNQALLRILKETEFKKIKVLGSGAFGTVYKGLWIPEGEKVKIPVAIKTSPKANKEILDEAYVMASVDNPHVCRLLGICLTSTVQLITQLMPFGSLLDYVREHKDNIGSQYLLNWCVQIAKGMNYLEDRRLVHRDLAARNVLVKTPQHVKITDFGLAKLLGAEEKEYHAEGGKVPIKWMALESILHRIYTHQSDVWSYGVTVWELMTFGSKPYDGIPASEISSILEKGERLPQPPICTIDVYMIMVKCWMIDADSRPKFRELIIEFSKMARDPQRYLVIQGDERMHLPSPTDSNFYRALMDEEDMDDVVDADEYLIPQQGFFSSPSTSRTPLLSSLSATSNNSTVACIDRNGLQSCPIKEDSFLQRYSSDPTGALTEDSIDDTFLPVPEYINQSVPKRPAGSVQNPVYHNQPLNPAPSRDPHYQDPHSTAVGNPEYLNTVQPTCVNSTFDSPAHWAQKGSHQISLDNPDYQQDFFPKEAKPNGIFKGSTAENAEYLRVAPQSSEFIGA
In short: as §1

EGFR wildtype = EGFR wildtype (Homo sapiens, UniProt P00533); assay: Biochemical EGFR kinase assay (Lance Ultra TR-FRET), wildtype
In short: as §1

EGFR del19/T790M/C797S = EGFR del19/T790M/C797S (Homo sapiens, UniProt P00533, C797S/DEL746-750/T790M); assay: Biochemical EGFR kinase assay (Lance Ultra TR-FRET), triple mutant del19/T790M/C797S
EGFR del19/T790M/C797S, sequence (P00533 with tags, fused parts or gaps DEL746-750/T790M/C797S): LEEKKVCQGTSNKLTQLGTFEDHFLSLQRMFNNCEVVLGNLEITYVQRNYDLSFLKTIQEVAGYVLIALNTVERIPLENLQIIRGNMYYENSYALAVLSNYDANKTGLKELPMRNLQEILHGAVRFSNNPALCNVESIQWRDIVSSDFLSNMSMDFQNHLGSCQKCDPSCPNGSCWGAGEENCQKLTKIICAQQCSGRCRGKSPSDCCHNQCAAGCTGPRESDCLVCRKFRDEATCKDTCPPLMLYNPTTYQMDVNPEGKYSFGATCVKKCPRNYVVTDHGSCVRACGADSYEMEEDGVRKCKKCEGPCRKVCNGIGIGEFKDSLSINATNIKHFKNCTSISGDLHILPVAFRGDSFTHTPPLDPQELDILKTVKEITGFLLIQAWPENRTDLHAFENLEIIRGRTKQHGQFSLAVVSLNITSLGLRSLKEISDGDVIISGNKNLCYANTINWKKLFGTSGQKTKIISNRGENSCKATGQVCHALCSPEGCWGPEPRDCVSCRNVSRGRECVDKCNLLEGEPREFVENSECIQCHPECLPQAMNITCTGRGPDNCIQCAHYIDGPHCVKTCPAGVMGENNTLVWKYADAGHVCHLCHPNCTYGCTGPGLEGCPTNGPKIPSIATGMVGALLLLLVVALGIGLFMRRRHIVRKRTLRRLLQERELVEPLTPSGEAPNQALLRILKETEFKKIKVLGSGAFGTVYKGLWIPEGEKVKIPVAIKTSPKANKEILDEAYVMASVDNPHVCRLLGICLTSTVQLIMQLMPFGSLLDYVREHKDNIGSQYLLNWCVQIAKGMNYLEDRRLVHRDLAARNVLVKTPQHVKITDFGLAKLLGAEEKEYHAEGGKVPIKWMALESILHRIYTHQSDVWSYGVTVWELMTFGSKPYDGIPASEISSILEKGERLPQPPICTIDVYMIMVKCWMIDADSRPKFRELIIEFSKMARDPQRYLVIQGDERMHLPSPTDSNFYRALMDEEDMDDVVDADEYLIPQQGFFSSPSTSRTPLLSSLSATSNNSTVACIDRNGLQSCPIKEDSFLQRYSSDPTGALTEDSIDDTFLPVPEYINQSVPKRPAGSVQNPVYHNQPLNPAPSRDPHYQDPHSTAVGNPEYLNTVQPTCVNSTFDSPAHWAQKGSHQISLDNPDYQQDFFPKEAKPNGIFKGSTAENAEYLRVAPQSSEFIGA
In short: as §1

[1] = IC50 L858R/T790M/C797S, 100 μM ATP
[2] = IC50 del19/T790M/C797S, 100 μM ATP
[3] = ATP at Km, read-out: IC50 L858R/T790M/C797S, Km ATP
[4] = ATP at Km, read-out: IC50 L858R/C797S, Km ATP
[5] = ATP at Km, read-out: IC50 del19/C797S, Km ATP
[6] = ATP at Km, read-out: IC50 WT, Km ATP
[7] = ATP at Km, read-out: IC50 del19/T790M/C797S, Km ATP

EGFR L858R/T790M/C797S, sequence (P00533 25-1210 T790M/C797S/L858R): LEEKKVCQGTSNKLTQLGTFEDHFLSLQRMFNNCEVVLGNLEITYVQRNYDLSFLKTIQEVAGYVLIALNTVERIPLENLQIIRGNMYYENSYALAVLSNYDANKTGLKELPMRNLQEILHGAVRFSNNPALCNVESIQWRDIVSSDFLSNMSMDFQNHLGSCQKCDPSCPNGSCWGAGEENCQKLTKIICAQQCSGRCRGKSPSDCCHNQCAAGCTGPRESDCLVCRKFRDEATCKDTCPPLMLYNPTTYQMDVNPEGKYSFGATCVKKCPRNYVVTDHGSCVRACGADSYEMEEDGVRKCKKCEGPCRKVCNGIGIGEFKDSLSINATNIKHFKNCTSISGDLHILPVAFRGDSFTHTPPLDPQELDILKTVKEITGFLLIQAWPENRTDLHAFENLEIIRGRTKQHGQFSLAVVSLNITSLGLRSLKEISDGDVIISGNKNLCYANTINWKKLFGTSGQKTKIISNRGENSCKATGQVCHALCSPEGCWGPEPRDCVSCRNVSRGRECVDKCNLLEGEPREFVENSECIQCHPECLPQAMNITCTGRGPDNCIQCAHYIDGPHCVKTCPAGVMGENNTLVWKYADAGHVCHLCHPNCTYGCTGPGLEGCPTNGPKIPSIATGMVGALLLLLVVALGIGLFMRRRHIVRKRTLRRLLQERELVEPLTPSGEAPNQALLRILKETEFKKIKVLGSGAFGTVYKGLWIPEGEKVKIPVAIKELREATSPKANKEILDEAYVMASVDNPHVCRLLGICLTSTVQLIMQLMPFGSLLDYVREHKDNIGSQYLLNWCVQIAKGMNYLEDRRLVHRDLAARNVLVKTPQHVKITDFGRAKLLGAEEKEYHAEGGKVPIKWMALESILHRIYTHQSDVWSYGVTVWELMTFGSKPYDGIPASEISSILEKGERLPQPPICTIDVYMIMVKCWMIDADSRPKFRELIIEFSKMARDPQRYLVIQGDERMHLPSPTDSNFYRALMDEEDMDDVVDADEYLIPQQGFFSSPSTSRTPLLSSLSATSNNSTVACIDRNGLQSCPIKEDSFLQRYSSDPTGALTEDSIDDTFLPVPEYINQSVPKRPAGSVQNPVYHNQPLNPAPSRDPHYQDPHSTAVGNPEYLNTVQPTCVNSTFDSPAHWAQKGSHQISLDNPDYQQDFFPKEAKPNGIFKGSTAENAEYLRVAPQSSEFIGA

| IC50 (EGFR L858R/T790M/C797S; [1]) | IC50 (EGFR L858R/C797S; IC50 L858R/C797S, 100 μM ATP) | IC50 (EGFR del19/C797S; IC50 del19/C797S, 100 μM ATP) | IC50 (EGFR wildtype; IC50 WT, 100 μM ATP) | IC50 (EGFR del19/T790M/C797S; [2]) | IC50 (EGFR L858R/T790M/C797S; [3]) | IC50 (EGFR L858R/C797S; [4]) | IC50 (EGFR del19/C797S; [5]) | IC50 (EGFR wildtype; [6]) | IC50 (EGFR del19/T790M/C797S; [7]) | SMILES |
| --- | --- | --- | --- | --- | --- | --- | --- | --- | --- | --- |
| 0.3 nM | 8.6 nM | 1 nM | 2230 nM | 0.2 nM |  |  |  |  |  | O=S(=O)(C1CC1)n1cc(-c2nccc(Nc3cc(N[C@H]4CC[C@@H](NCCF)CC4)c(-c4cccc(F)n4)cn3)n2)cn1 [Example 273, N^6′-(2-(1-(Cyclopropylsulfonyl)-1H-pyrazol-4-yl)pyrimidin-4-yl)-6-fluoro-N^4′-((1s,4s)-4-((2-fluoroethyl)amino)cyclohexyl)-[2,3′-bipyridine]-4′,6′-diamine] |
| 0.1 nM | 0.4 nM | 0.1 nM | 108 nM | 0.1 nM | 0.03 nM | 0.1 nM | 0.1 nM | 0.5 nM | 0.02 nM | CN(C)C[C@H]1CC[C@@H](Nc2cc(Nc3ccnc(-c4cnn(S(=O)(=O)C5CC5)c4)n3)ncc2-c2cccc(F)n2)CC1 [Example 274, N^6′-(2-(1-(Cyclopropylsulfonyl)-1H-pyrazol-4-yl)pyrimidin-4-yl)-N^4′-((1s,4s)-4-((dimethylamino)methyl)cyclohexyl)-6-fluoro-[2,3′-bipyridine]-4′,6′-diamine] |
|  | 6.6 nM | 5 nM | > 10000 nM | 2.9 nM | 0.6 nM | 0.9 nM | 1.7 nM | 11.9 nM | 2 nM | C[C@]1(O)CC[C@@H](Nc2cc(Nc3ccnc(-c4cnn(S(=O)(=O)C5CC5)c4)n3)ncc2-c2cc(NCCN3CCOCC3)ccn2)CC1 [Example 279, (1s,4s)-4-((6′-((2-(1-(Cyclopropylsulfonyl)-1H-pyrazol-4-yl)pyrimidin-4-yl)amino)-4 ((2-morpholinoethyl)amino)-[2,3′-bipyridin]-4′-yl)amino)-1-methylcyclohexan-1-ol] |
| 0.2 nM | 2.1 nM | 0.6 nM | 6340 nM | 0.2 nM |  |  |  |  |  | C[C@]1(O)CC[C@@H](Nc2cc(Nc3ccnc(-c4cnn(S(=O)(=O)C5CC5)c4)n3)ncc2-c2cc(NCCN3CC(F)C3)ccn2)CC1 [Example 281, (1s,4s)-4-((6′-((2-(1-(Cyclopropylsulfonyl)-1H-pyrazol-4-yl)pyrimidin-4-yl)amino)-4-((2-(3-fluoroazetidin-1-yl)ethyl)amino)-[2,3′-bipyridin]-4′-yl)amino)-1-methylcyclohexan-1-ol] |
| 0.4 nM | 7 nM | 1.4 nM | 3970 nM | 0.2 nM |  |  |  |  |  | C[C@]1(O)CC[C@@H](Nc2cc(Nc3ccnc(-c4cnn(S(=O)(=O)C5CC5)c4)n3)ncc2-c2cc(NCCCO)ccn2)CC1 [Example 282, (1s,4s)-4-((6′-((2-(1-(Cyclopropylsulfonyl)-1H-pyrazol-4-yl)pyrimidin-4-yl)amino)-4-((3-hydroxypropyl)amino)-[2,3′-bipyridin]-4′-yl)amino)-1-methylcyclohexan-1-ol] |
| 0.4 nM | 2.3 nM | 0.6 nM | 1970 nM | 0.1 nM |  |  |  |  |  | CC1(O)CCC(Nc2cc(Nc3ccnc(-c4cnn(S(=O)(=O)C5CC5)c4)n3)ncc2-c2cc(NC3CC(O)C3)ccn2)CC1 (centres unmarked) [Example 283, (1s,4s)-4-((6′-((2-(1-(Cyclopropylsulfonyl)-1H-pyrazol-4-yl)pyrimidin-4-yl)amino)-4-((3-hydroxycyclobutyl)amino)-[2,3′-bipyridin]-4′-yl)amino)-1-methylcyclohexan-1-ol] |
| 0.3 nM | 2.5 nM | 0.3 nM | 735 nM | 0.3 nM | 0.1 nM | 0.1 nM | 0.3 nM |  | 0.2 nM | CN1CCC(Oc2cccc(-c3cnc(Nc4ccnc(-c5cnn(S(=O)(=O)C6CC6)c5)n4)cc3N[C@H]3CC[C@@](C)(O)CC3)n2)CC1 [Example 286, (1s,4s)-4-((6′-((2-(1-(Cyclopropylsulfonyl)-1H-pyrazol-4-yl)pyrimidin-4-yl)amino)-6-((1-methylpiperidin-4-yl)oxy)-[2,3′-bipyridin]-4′-yl)amino)-1-methylcyclohexan-1-ol] |
| 0.1 nM | 44 nM | 1 nM | 5140 nM | 0.3 nM | 0.1 nM | 0.8 nM | 0.4 nM | 3 nM | 0.2 nM | CN(C)CCOc1ccnc(-c2cnc(Nc3ccnc(-c4cnn(S(=O)(=O)C5CC5)c4)n3)cc2N[C@H]2CC[C@@](C)(O)CC2)c1 [Example 287, (1s,4s)-4-((6′-((2-(1-(Cyclopropylsulfonyl)-1H-pyrazol-4-yl)pyrimidin-4-yl)amino)-4-(2-(dimethylamino)ethoxy)-[2,3′-bipyridin]-4′-yl)amino)-1-methylcyclohexan-1-ol] |
| 0.2 nM | 6.8 nM | 0.5 nM | 2000 nM | 0.3 nM | 0.1 nM | 0.3 nM | 0.2 nM | 0.7 nM | 0.2 nM | CC1(O)CCC(Nc2cc(Nc3ccnc(-c4cnn(S(=O)(=O)C5CC5)c4)n3)ncc2-c2cc(CN3CC(O)C3)ccn2)CC1 (centres unmarked) [Example 288, 1-((6′-((2-(1-(Cyclopropylsulfonyl)-1H-pyrazol-4-yl)pyrimidin-4-yl)amino)-4′-(((1s,4s)-4-hydroxy-4-methylcyclohexyl)amino)-[2,3′-bipyridin]-4-yl)methyl) azetidin-3-ol] |

Further lines, the compound ahead of its results:

| SMILES | IC50 (EGFR L858R/T790M/C797S; [1]) | IC50 (EGFR L858R/C797S; IC50 L858R/C797S, 100 μM ATP) | IC50 (EGFR del19/C797S; IC50 del19/C797S, 100 μM ATP) | IC50 (EGFR wildtype; IC50 WT, 100 μM ATP) | IC50 (EGFR del19/T790M/C797S; [2]) | IC50 (EGFR L858R/T790M/C797S; [3]) | IC50 (EGFR L858R/C797S; [4]) | IC50 (EGFR del19/C797S; [5]) | IC50 (EGFR wildtype; [6]) | IC50 (EGFR del19/T790M/C797S; [7]) |
| --- | --- | --- | --- | --- | --- | --- | --- | --- | --- | --- |
| O=S(=O)(C1CC1)n1cc(-c2nccc(Nc3cc(N[C@H]4CC[C@@H](NCC(F)F)CC4)c(-c4cccc(F)n4)cn3)n2)cn1 [Example 275, N^6′-(2-(1-(Cyclopropylsulfonyl)-1H-pyrazol-4-yl)pyrimidin-4-yl)-N^4′-((1s,4s)-4-((2,2-difluoroethyl)amino)cyclohexyl)-6-fluoro-[2,3′-bipyridine]-4′,6′-diamine] | 1.2 nM | 11.4 nM | 2.6 nM | > 10000 nM | 1.1 nM | 0.7 nM | 4.1 nM | 2.5 nM | 18.5 nM | 0.9 nM |
| CN(C)CCNc1ccnc(-c2cnc(Nc3ccnc(-c4cnn(S(=O)(=O)C5CC5)c4)n3)cc2N[C@H]2CC[C@@](C)(O)CC2)c1 [Example 276, (1s,4s)-4-((6′-((2-(1-(Cyclopropylsulfonyl)-1H-pyrazol-4-yl)pyrimidin-4-yl)amino)-4-((2-(dimethylamino)ethyl)amino)-[2,3′-bipyridin]-4′-yl)amino)-1-methylcyclohexan-1-ol] | 0.5 nM | 2.3 nM | 0.7 nM | 2530 nM | 1.1 nM | 0.2 nM | 0.7 nM | 0.3 nM | 2.9 nM | 0.8 nM |
| C[C@]1(O)CC[C@@H](Nc2cc(Nc3ccnc(-c4cnn(S(=O)(=O)C5CC5)c4)n3)ncc2-c2cc(NCCC(F)(F)F)ccn2)CC1 [Example 277, (1s,4s)-4-((6′-((2-(1-(Cyclopropylsulfonyl)-1H-pyrazol-4-yl)pyrimidin-4-yl)amino)-4-((3,3,3-trifluoropropyl)amino)-[2,3′-bipyridin]-4′-yl)amino)-1-methylcyclohexan-1-ol] |  | 11.2 nM | 3.9 nM | > 10000 nM | 4.7 nM | 1.6 nM | 2.2 nM | 0.9 nM | 9.8 nM | 4.4 nM |
| C[C@]1(O)CC[C@@H](Nc2cc(Nc3ccnc(-c4cnn(S(=O)(=O)C5CC5)c4)n3)ncc2-c2cc(NC3CC(F)(F)C3)ccn2)CC1 [Example 280, (1s,4s)-4-((6′-((2-(1-(Cyclopropylsulfonyl)-1H-pyrazol-4-yl)pyrimidin-4-yl)amino)-4-((3,3-difluorocyclobutyl)amino)-[2,3′-bipyridin]-4′-yl)amino)-1-methylcyclohexan-1-ol] | 0.5 nM | 20.3 nM | 2.7 nM | > 10000 nM | 1 nM |  |  |  |  |  |
| C[C@]1(O)CC[C@@H](Nc2cc(Nc3ccnc(-c4cnn(S(=O)(=O)C5CC5)c4)n3)ncc2-c2ccc(C(=O)N3CCOCC3)cn2)CC1 [Example 284, (6′-((2-(1-(Cyclopropylsulfonyl)-1H-pyrazol-4-yl)pyrimidin-4-yl)amino)-4′-(((1s,4s)-4-hydroxy-4-methylcyclohexyl)amino)-[2,3′-bipyridin]-5-yl)(morpholino)methanone] | 0.2 nM | 0.4 nM | 0.2 nM | 176 nM | 0.1 nM |  |  |  |  |  |
| C[C@]1(O)CC[C@@H](Nc2cc(Nc3ccnc(-c4cnn(S(=O)(=O)C5CC5)c4)n3)ncc2-c2cccc(NCCO)n2)CC1 [Example 285, (1s,4s)-4-((6′-((2-(1-(Cyclopropylsulfonyl)-1H-pyrazol-4-yl)pyrimidin-4-yl)amino)-6-((2-hydroxyethyl)amino)-[2,3′-bipyridin]-4′-yl)amino)-1-methylcyclohexan-1-ol] | 0.2 nM | 14.1 nM | 0.9 nM | 6310 nM | 0.2 nM |  | 0.5 nM | 0.4 nM | 7.8 nM | 0.1 nM |
